Source: US10780074B2, “Compounds and uses thereof” (Sunovion Pharmaceuticals Inc., priority 2017, dated 2020)
Where a name gives a salt, the structure may show the parent alone.

Tested on: behaviors of compound-treated mice
Assay: Neuropharmacological Assay (SmartCube)
Assay type: in vivo
Details: for minimal effective dose: Mus musculus, ip, 0.25 h, dose having 50% or more total activity in SmartCube, i.p., read-out: MED (minimal effective dose); for AD: ADHD (probability that activity matches class) / AG: analgesic (probability that activity matches class) / AX: anxiolytic (probability that activity matches class) / CE: cognitive enhancer (probability that activity matches class) / DP: anti-depressant (probability that activity matches class) / MS: mood stabilizer (probability that activity matches class) / PS: anti-psychotic (probability that activity matches class) / SD: sedative hypnotic (probability that activity matches class) / UN: uncharacterized CNS activity (probability that activity matches class): i.p. 15 min before behavioral test, most efficacious dose(s) of 3 doses
Procedure, shortened: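 Behavioral signatures were captured automatically by video, and each drug class received a probability for the best of three i.p. doses given 15 min pre-test (vehicle: Pharmasolve/PEG/propylene glycol). Potency is given as MED, the lowest mpk dose (typically 0.3–30) reaching 50% or more total activity.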

SMILES | minimal effective dose | AD: ADHD (probability that activity matches class) | AG: analgesic (probability that activity matches class) | AX: anxiolytic (probability that activity matches class) | CE: cognitive enhancer (probability that activity matches class) | DP: anti-depressant (probability that activity matches class) | MS: mood stabilizer (probability that activity matches class) | PS: anti-psychotic (probability that activity matches class) | SD: sedative hypnotic (probability that activity matches class) | UN: uncharacterized CNS activity (probability that activity matches class)
CNCC1OCCc2c(-c3cncs3)cccc21 (stereo not shown) [Compound 52, N-Methyl-1-(5-(thiazol-5-yl)isochroman-1-yl)methanamine hydrochloride] | 3 to 10 mg/kg | + (LOQ ≤ + <5%) | + (LOQ ≤ + <5%) | + (LOQ ≤ + <5%) | + (LOQ ≤ + <5%) | ++++ (50% ≤ ++++) | + (LOQ ≤ + <5%) | + (LOQ ≤ + <5%) | + (LOQ ≤ + <5%) | ++ (5% ≤ ++ <25%)
CNC[C@@H]1OCCc2ccc(-c3ccncc3)cc21 [Compound 49, (R)—N-Methyl-1-(7-(pyridin-4-yl)isochroman-1-yl)methanamine hydrochloride] | ≤ 3 mg/kg | + (LOQ ≤ + <5%) | ++ (5% ≤ ++ <25%) | ++ (5% ≤ ++ <25%) | ++ (5% ≤ ++ <25%) | ++ (5% ≤ ++ <25%) | + (LOQ ≤ + <5%) | ++ (5% ≤ ++ <25%) | + (LOQ ≤ + <5%) | ++++ (50% ≤ ++++)
NC[C@@H]1OCCc2c(-c3cnco3)cccc21 (single isomer, unassigned) [Compound 98, hydrochloride salt] | ≤ 3 mg/kg | ++ (5% ≤ ++ <25%) | + (LOQ ≤ + <5%) | ++ (5% ≤ ++ <25%) | + (LOQ ≤ + <5%) | ++++ (50% ≤ ++++) | + (LOQ ≤ + <5%) | + (LOQ ≤ + <5%) | + (LOQ ≤ + <5%) | + (LOQ ≤ + <5%)
CNC[C@@H]1OCCc2ccc(-c3cccnc3)cc21 (single isomer, unassigned) [Compound 3, dihydrochloride] | 3 to 10 mg/kg | + (LOQ ≤ + <5%) | ++ (5% ≤ ++ <25%) | ++ (5% ≤ ++ <25%) | ++ (5% ≤ ++ <25%) | ++ (5% ≤ ++ <25%) | ++ (5% ≤ ++ <25%) | ++ (5% ≤ ++ <25%) | + (LOQ ≤ + <5%) | ++ (5% ≤ ++ <25%)
NC[C@@H]1OCCc2c(-c3c[nH]cn3)cccc21 (single isomer, unassigned) [Compound 112, hydrochloride salt] | 10 to 30 mg/kg | + (LOQ ≤ + <5%) | + (LOQ ≤ + <5%) | ++ (5% ≤ ++ <25%) | + (LOQ ≤ + <5%) | ++ (5% ≤ ++ <25%) | + (LOQ ≤ + <5%) | + (LOQ ≤ + <5%) | + (LOQ ≤ + <5%) | + (LOQ ≤ + <5%)
NC[C@H]1OCCc2c(-c3cnccn3)cccc21 (single isomer, unassigned) [Compound 83, hydrochloride salt] | 3 to 10 mg/kg | ++ (5% ≤ ++ <25%) | + (LOQ ≤ + <5%) | ++ (5% ≤ ++ <25%) | + (LOQ ≤ + <5%) | ++++ (50% ≤ ++++) | + (LOQ ≤ + <5%) | + (LOQ ≤ + <5%) | + (LOQ ≤ + <5%) | + (LOQ ≤ + <5%)
CNC[C@@H]1OCCCc2c(-c3cncs3)cccc21 (single isomer, unassigned) [Compound 168, hydrochloride salt] | ≤ 3 mg/kg | ++ (5% ≤ ++ <25%) | + (LOQ ≤ + <5%) | ++ (5% ≤ ++ <25%) | + (LOQ ≤ + <5%) | ++++ (50% ≤ ++++) | + (LOQ ≤ + <5%) | + (LOQ ≤ + <5%) | ++ (5% ≤ ++ <25%) | ++ (5% ≤ ++ <25%)
Cc1cc(-c2cccc3c2CCO[C@@H]3CN)cc(C)n1 [Compound 127, dihydrochloride] | 10 to 30 mg/kg | + (LOQ ≤ + <5%) | + (LOQ ≤ + <5%) | + (LOQ ≤ + <5%) | + (LOQ ≤ + <5%) | ++ (5% ≤ ++ <25%) | + (LOQ ≤ + <5%) | + (LOQ ≤ + <5%) | + (LOQ ≤ + <5%) | + (LOQ ≤ + <5%)
NC[C@@H]1OCCc2c(-c3ccncc3)cccc21 [Compound 19, (R)-(5-(Pyridin-4-yl)isochroman-1-yl)methanamine hydrochloride salt] | > 30 mg/kg | + (LOQ ≤ + <5%) | ++ (5% ≤ ++ <25%) | ++ (5% ≤ ++ <25%) | ++ (5% ≤ ++ <25%) | ++ (5% ≤ ++ <25%) | + (LOQ ≤ + <5%) | + (LOQ ≤ + <5%) | + (LOQ ≤ + <5%) | + (LOQ ≤ + <5%)
CNC[C@H]1OCCc2ccc(-c3cncnc3)cc21 (single isomer, unassigned) [Compound 25, hydrochloride] | 10 to 30 mg/kg | + (LOQ ≤ + <5%) | ++ (5% ≤ ++ <25%) | ++ (5% ≤ ++ <25%) | +++ (25% ≤ +++ <50%) | ++ (5% ≤ ++ <25%) | ++ (5% ≤ ++ <25%) | ++ (5% ≤ ++ <25%) | ++ (5% ≤ ++ <25%) | + (LOQ ≤ + <5%)
CNC[C@@H]1OCc2c(-c3ccncc3)cccc21 (single isomer, unassigned) [Compound 39, hydrochloride salt] | ≤ 3 mg/kg | ++ (5% ≤ ++ <25%) | + (LOQ ≤ + <5%) | ++ (5% ≤ ++ <25%) | + (LOQ ≤ + <5%) | ++++ (50% ≤ ++++) | + (LOQ ≤ + <5%) | + (LOQ ≤ + <5%) | ++ (5% ≤ ++ <25%) | + (LOQ ≤ + <5%)
CNCC1OCCc2ccc(-c3ccncn3)cc21 (stereo not shown) [Compound 58, N-Methyl-1-(7-(pyrimidin-4-yl)isochroman-1-yl)methanamine hydrochloride salt] | 10 to 30 mg/kg | + (LOQ ≤ + <5%) | + (LOQ ≤ + <5%) | ++ (5% ≤ ++ <25%) | + (LOQ ≤ + <5%) | + (LOQ ≤ + <5%) | + (LOQ ≤ + <5%) | + (LOQ ≤ + <5%) | + (LOQ ≤ + <5%) | ++++ (50% ≤ ++++)
NC[C@H]1OCCc2c(-c3cnoc3)cccc21 (single isomer, unassigned) [Compound 87, hydrochloride salt] | ≤ 3 mg/kg | ++ (5% ≤ ++ <25%) | + (LOQ ≤ + <5%) | ++++ (50% ≤ ++++) | + (LOQ ≤ + <5%) | ++++ (50% ≤ ++++) | + (LOQ ≤ + <5%) | + (LOQ ≤ + <5%) | + (LOQ ≤ + <5%) | + (LOQ ≤ + <5%)
